Results from patent publication US8501750B2, “Heterocyclic compound and use thereof” (Takeda Pharmaceutical Company Limited, priority 2007, dated 2013).
Counter-ions that a name gives are not always drawn. Like-named read-outs stand apart in the source and are kept apart here.

What was measured:
AT1 receptor = AT1 receptor (Homo sapiens (Human), UniProt P30556); assay: AT1 receptor binding inhibitory action
PPARγ = PPARγ (Homo sapiens (Human), UniProt P37231); assay: PPARγ activating action (luciferase reporter in PPARγ:RXRα:4ERPP/CHO-K1 cells); format: cell-based; details: CHO-K1, 24 h, read-out: PPARγ activating action (activation % (1 μM))
Method: Then the medium was removed from the 96-well half area white plate, 45 μl of Ham's F12 medium containing 0.1% fatty acid-free bovine serum albumin (BSA) and 5 μl of test compound were added, and the cells were cultured in a CO2 gas incubator at 37° C. for 1 day. The medium was removed and 20 μl of PicaGene 7.5 [manufactured by Dainippon Ink and Chemicals Corporation, Japan] diluted 2-fold with HBSS (HANKS' BALANCED SALT SOLUTION) [manufactured by BIO WHITTAKER, USA] was added. After stirring, the luciferase activity was determined using 1420 ARVO Multilabel Counter [manufactured by PerkinElmer, USA]. […] A CHO-K1 cell cultured in a 150 cm^2 cell culture flask [manufactured by Corning Costar Corporation, USA] containing Ham's F12 medium [manufactured by INVITROGEN, USA] supplemented with 10% fetal bovine serum [manufactured by INVITROGEN, USA] was scraped by treating with 0.5 g/L trypsin-0.2 g/L EDTA (ethylenediaminetetraacetic acid) [manufactured by Life Technologies, Inc., USA], and then the cell was washed with PBS (Phosphate-buffered saline) [manufactured by INVITROGEN, USA], centrifuged (1000 rpm, 5 minutes) and suspended in PBS. Subsequently, DNA was introduced into the cell under the conditions shown below using GENE PULSER [manufactured by Bio-Rad Laboratories, USA]. […] Subsequently, the cell was transferred into a F12 medium containing 10% fetal bovine serum and cultured for 24 hours, and then the cell was scraped again and centrifuged, and then suspended in Ham's F12 medium containing 10% fetal bovine serum supplemented with 500 μg/ml of Geneticin [manufactured by INVITROGEN, USA] and 250 μg/ml of Zeocin [manufactured by INVITROGEN, USA]. The obtained suspension was diluted to the density of 10^4 cells/ml and inoculated in a 96-well plate [manufactured by Corning Costar Corporation, USA], which was cultured in a CO2 gas incubator at 37° C., whereby obtaining a Geneticin- and Zeocin-resistant transformant.

[1] = test compound 1 μM, luciferase activity relative to control compound X (1 μM) = 100%, non-administration group = 0%

AT1 receptor, sequence (P30556 whole entry): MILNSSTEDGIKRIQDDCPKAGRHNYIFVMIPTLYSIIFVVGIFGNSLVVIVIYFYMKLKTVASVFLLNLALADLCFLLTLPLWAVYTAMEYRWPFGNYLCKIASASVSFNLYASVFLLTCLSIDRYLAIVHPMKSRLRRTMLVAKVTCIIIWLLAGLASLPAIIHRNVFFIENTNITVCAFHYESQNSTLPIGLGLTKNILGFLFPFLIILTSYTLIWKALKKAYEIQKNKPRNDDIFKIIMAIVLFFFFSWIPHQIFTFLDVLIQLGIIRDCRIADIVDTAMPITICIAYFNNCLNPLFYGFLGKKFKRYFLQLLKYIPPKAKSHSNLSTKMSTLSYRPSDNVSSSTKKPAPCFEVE
PPARγ, sequence (P37231 29-505): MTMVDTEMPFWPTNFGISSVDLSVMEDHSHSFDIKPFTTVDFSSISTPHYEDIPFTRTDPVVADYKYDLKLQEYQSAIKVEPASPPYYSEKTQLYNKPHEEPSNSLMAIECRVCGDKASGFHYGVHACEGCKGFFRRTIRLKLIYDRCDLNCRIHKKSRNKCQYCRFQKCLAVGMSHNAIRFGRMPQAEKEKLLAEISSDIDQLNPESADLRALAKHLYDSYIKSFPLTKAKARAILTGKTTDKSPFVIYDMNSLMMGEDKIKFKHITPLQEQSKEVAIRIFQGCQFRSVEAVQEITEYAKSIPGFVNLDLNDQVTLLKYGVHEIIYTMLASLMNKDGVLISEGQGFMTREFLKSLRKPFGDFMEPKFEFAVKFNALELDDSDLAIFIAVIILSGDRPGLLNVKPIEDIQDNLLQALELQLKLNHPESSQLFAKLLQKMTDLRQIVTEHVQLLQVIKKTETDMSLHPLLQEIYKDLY
PPARγ, sequence (P19793 whole entry partner): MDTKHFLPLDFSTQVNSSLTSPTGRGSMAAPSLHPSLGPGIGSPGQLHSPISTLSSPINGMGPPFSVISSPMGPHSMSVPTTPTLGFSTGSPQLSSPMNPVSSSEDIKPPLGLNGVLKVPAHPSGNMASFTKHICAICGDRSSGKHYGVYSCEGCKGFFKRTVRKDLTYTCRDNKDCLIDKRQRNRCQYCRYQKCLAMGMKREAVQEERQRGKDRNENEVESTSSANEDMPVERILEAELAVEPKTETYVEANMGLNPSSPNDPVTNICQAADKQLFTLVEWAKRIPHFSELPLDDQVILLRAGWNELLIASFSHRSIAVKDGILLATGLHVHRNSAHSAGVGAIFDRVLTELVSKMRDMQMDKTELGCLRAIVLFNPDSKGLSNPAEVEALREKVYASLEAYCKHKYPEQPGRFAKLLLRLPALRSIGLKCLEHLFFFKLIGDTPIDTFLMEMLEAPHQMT

Molecule `CCc1cc2c(=O)n(CC(=NOC)c3ccccc3)c(=O)n(Cc3ccc(-c4ccccc4-c4noc(=O)[nH]4)cc3)c2s1` [Ex. 215, 6-ethyl-3-[2-(methoxyimino)-2-phenylethyl]-1-{[2′-(5-oxo-4,5-dihydro-1,2,4-oxadiazol-3-yl)biphenyl-4-yl]methyl}thieno[2,3-d]pyrimidine-2,4(1H,3H)-dione] has an IC50 (AT1 receptor) of 1.3 nM and an activation at 1 µM (PPARγ; [1]) of 27%.

Molecule `CCc1cc2c(=O)n(CC3(C)COC3)c(=O)n(Cc3ccc(-c4ccccc4-c4noc(=O)[nH]4)cc3)c2s1` [Ex. 144, 6-ethyl-3-[(3-methyloxetan-3-yl)methyl]-1-{[2′-(5-oxo-4,5-dihydro-1,2,4-oxadiazol-3-yl)biphenyl-4-yl]methyl}thieno[2,3-d]pyrimidine-2,4(1H,3H)-dione] has an IC50 (AT1 receptor) of 1.7 nM and an activation at 1 µM (PPARγ; [1]) of 40%.

`C=CCON=C(Cn1c(=O)c2cc(CC)sc2n(Cc2ccc(-c3ccccc3-c3noc(=O)[nH]3)cc2)c1=O)c1ccc(OC)cc1` [Ex. 214, 3-[2-[(allyloxy)imino]-2-(4-methoxyphenyl)ethyl]-6-ethyl-1-{[2′-(5-oxo-4,5-dihydro-1,2,4-oxadiazol-3-yl)biphenyl-4-yl]methyl}thieno[2,3-d]pyrimidine-2,4(1H,3H)-dione] gave an IC50 (AT1 receptor) of 1.8 nM and an activation at 1 µM (PPARγ; [1]) of 41%.

In the case of `COc1cc(F)ccc1C(=O)Cn1c(=O)c2cc(C3CC3)sc2n(Cc2ccc(-c3ccccc3-c3noc(=O)[nH]3)cc2F)c1=O` [Ex. 129, 6-cyclopropyl-3-[2-(4-fluoro-2-methoxyphenyl)-2-oxoethyl]-1-{[3-fluoro-2′-(5-oxo-4,5-dihydro-1,2,4-oxadiazol-3-yl)biphenyl-4-yl]methyl}thieno[2,3-d]pyrimidine-2,4(1H,3H)-dione], the IC50 (AT1 receptor) is reported as 1.6 nM and the activation at 1 µM (PPARγ; [1]) is reported as 61%.

`COc1cc(F)ccc1C(=O)Cn1c(=O)c2cc(C3CC3)sc2n(Cc2ccc(-c3ccccc3-c3noc(=O)[nH]3)cc2)c1=O` [Ex. 130, 6-cyclopropyl-3-[2-(4-fluoro-2-methoxyphenyl)-2-oxoethyl]-1-{[2′-(5-oxo-4,5-dihydro-1,2,4-oxadiazol-3-yl)biphenyl-4-yl]methyl}thieno[2,3-d]pyrimidine-2,4(1H,3H)-dione] showed an IC50 (AT1 receptor) of 1.6 nM and an activation at 1 µM (PPARγ; [1]) of 56%.

`COc1ccccc1C(=O)Cn1c(=O)c2cc(C3CC3)sc2n(Cc2ccc(-c3ccccc3-c3noc(O)n3)cc2)c1=O` [Ex. 99, 6-cyclopropyl-3-[2-(2-methoxyphenyl)-2-oxoethyl]-1-{[2′-(5-oxo-4,5-dihydro-1,2,4-oxadiazol-3-yl)biphenyl-4-yl]methyl}thieno[2,3-d]pyrimidine-2,4(1H,3H)-dione potassium salt] showed an IC50 (AT1 receptor) of 1.2 nM and an activation at 1 µM (PPARγ) of 56%.

`CCc1cc2c(=O)n(C/C(=N/OC)C(C)(C)C)c(=O)n(Cc3ccc(-c4ccccc4-c4noc(=O)[nH]4)cc3)c2s1` [Ex. 142, 6-ethyl-3-[2-(methoxyimino)-3,3-dimethylbutyl]-1-{[2′-(5-oxo-4,5-dihydro-1,2,4-oxadiazol-3-yl)biphenyl-4-yl]methyl}thieno[2,3-d]pyrimidine-2,4(1H,3H)-dione] showed an IC50 (AT1 receptor) of 1.5 nM and an activation at 1 µM (PPARγ; [1]) of 38%.

Work on `COc1cccc(C(=O)Cn2c(=O)c3cc(C4CC4)sc3n(Cc3ccc(-c4ccccc4-c4noc(O)n4)cc3)c2=O)c1` [Ex. 107, 6-cyclopropyl-3-[2-(3-methoxyphenyl)-2-oxoethyl]-1-{[2′-(5-oxo-4,5-dihydro-1,2,4-oxadiazol-3-yl)biphenyl-4-yl]methyl}thieno[2,3-d]pyrimidine-2,4(1H,3H)-dione potassium salt] yielded an IC50 (AT1 receptor) of 1.1 nM and an activation at 1 µM (PPARγ) of 43%.

For `CCc1cc2c(=O)n(CC(=O)C(C)(C)COC(C)=O)c(=O)n(Cc3ccc(-c4ccccc4-c4noc(=O)[nH]4)cc3)c2s1` [Ex. 148, 4-[6-ethyl-2,4-dioxo-1-{[2′-(5-oxo-4,5-dihydro-1,2,4-oxadiazol-3-yl)biphenyl-4-yl]methyl}-1,4-dihydrothieno[2,3-d]pyrimidin-3(2H)-yl]-2,2-dimethyl-3-oxobutyl acetate], the IC50 (AT1 receptor) was 1.5 nM and the activation at 1 µM (PPARγ; [1]) was 33%.

In the case of `CCc1cc2c(=O)n(CC(=O)c3ccc(Cl)s3)c(=O)n(Cc3ccc(-c4ccccc4-c4noc(=O)[nH]4)cc3)c2s1` [Ex. 150, 3-[2-(5-chloro-2-thienyl)-2-oxoethyl]-6-ethyl-1-{[2′-(5-oxo-4,5-dihydro-1,2,4-oxadiazol-3-yl)biphenyl-4-yl]methyl}thieno[2,3-d]pyrimidine-2,4(1H,3H)-dione], the IC50 (AT1 receptor) is reported as 1.5 nM and the activation at 1 µM (PPARγ; [1]) is reported as 33%.

With `CCc1cc2c(=O)n(CC(=O)c3ccccc3)c(=O)n(Cc3ccc(-c4ccccc4-c4noc(=O)[nH]4)cc3)c2s1` [Ex. 209, 6-ethyl-1-{[2′-(5-oxo-4,5-dihydro-1,2,4-oxadiazol-3-yl)biphenyl-4-yl]methyl}-3-(2-oxo-2-phenylethyl)thieno[2,3-d]pyrimidine-2,4(1H,3H)-dione] the IC50 (AT1 receptor) was 1.4 nM and the activation at 1 µM (PPARγ; [1]) was 66%.

For `CCc1cc2c(=O)n(CC(=O)c3sccc3Br)c(=O)n(Cc3ccc(-c4ccccc4-c4noc(=O)[nH]4)cc3)c2s1` [Ex. 222, 3-[2-(3-bromo-2-thienyl)-2-oxoethyl]-6-ethyl-1-{[2′-(5-oxo-4,5-dihydro-1,2,4-oxadiazol-3-yl)biphenyl-4-yl]methyl}thieno[2,3-d]pyrimidine-2,4(1H,3H)-dione], the IC50 (AT1 receptor) was 1.9 nM and the activation at 1 µM (PPARγ; [1]) was 32%.

`CCc1cc2c(=O)n(CCc3ccc(F)cc3)c(=O)n(Cc3ccc(-c4ccccc4-c4noc(=O)[nH]4)cc3)c2s1` [Example 56, 6-ethyl-3-[2-(4-fluorophenyl)ethyl]-1-{[2′-(5-oxo-4,5-dihydro-1,2,4-oxadiazol-3-yl)biphenyl-4-yl]methyl}thieno[2,3-d]pyrimidine-2,4(1H,3H)-dione] was tested, and the IC50 (AT1 receptor) was 0.34 nM and the activation at 1 µM (PPARγ; [1]) was 65%.
